# Calls of active or inactive are those of the source. The rule behind the calls is not given here.
# Key:
# Rattus norvegicus [1] = test: Antidiabetic activity against streptozotocin-induced Wistar rat assessed as decrease in blood glucose level at 10 mg/kg, po measured at 30 mins by oral glucose test; type: functional, organism-based
# Rattus norvegicus [2] = test: Antidiabetic activity against streptozotocin-induced Wistar rat assessed as decrease in HDL level at 10 mg/kg, po measured upto 35 days; type: functional, organism-based; conditions: time <= 35.0 day
# Rattus norvegicus [3] = test: Antidiabetic activity against streptozotocin-induced Wistar rat assessed as effect on blood glucose level at 10 mg/kg, po measured on day 1; type: functional, organism-based; conditions: time 1.0 day
# [4] = Toxicity in streptozotocin-induced Wistar rat assessed as change in blood lymphocyte count at 10 mg/kg, po measured up to 35 days; type: organism-based; conditions: in vivo, 840 h, time < 35 day
# Rattus norvegicus [5] = test: Antidiabetic activity against streptozotocin-induced Wistar rat assessed as increase in IL1-beta level in Pancreas at 10 mg/kg, po measured upto 35 days; type: functional, organism-based; conditions: time <= 35.0 day
# Rattus norvegicus [6] = test: Antidiabetic activity against streptozotocin-induced Wistar rat assessed as effect on blood glucose level at 10 mg/kg, po measured on day 4; type: functional, organism-based; conditions: time 4.0 day
# Rattus norvegicus [7] = test: Antidiabetic activity against Wistar rat assessed as effect on glutathione level at 10 mg/kg, po measured upto 35 days; type: functional, organism-based; conditions: time <= 35.0 day
# Rattus norvegicus [8] = test: Antidiabetic activity against streptozotocin-induced Wistar rat assessed as decrease in SOD level at 10 mg/kg, po measured upto 35 days; type: functional, organism-based; conditions: time <= 35.0 day
# Rattus norvegicus [9] = test: Antidiabetic activity against streptozotocin-induced Wistar rat assessed as decrease in triglyceride level at 10 mg/kg, po measured upto 35 days; type: functional, organism-based; conditions: time <= 35.0 day
# [10] = Toxicity in streptozotocin-induced Wistar rat assessed as morphological changes in liver at 10 mg/kg, po measured up to 35 days; type: organism-based; conditions: in vivo, 840 h, time < 35 day
# Rattus norvegicus [11] = test: Antidiabetic activity against streptozotocin-induced Wistar rat assessed as increase in PPAR-gamma level at 10 mg/kg, po measured upto 35 days by ELISA analysis; type: functional, organism-based; conditions: time <= 35.0 day
# [12] = Toxicity in Wistar rat assessed as decrease in body weight at 10 mg/kg, po measured on day 14; type: organism-based; conditions: in vivo, 336 h, time 14 day
# [13] = Toxicity in streptozotocin-induced Wistar rat assessed as decrease in glomeruli shrinkage in kidney at 10 mg/kg, po measured up to 35 days; type: organism-based; conditions: in vivo, 840 h, time < 35 day
# Rattus norvegicus [14] = test: Antidiabetic activity against streptozotocin-induced Wistar rat assessed as decrease in MDA level at 10 mg/kg, po measured upto 35 days; type: functional, organism-based; conditions: time <= 35.0 day
# Rattus norvegicus [15] = test: Antidiabetic activity against streptozotocin-induced Wistar rat assessed as increase in serum ALP level at 10 mg/kg, po measured upto 35 days; type: functional, organism-based; conditions: time <= 35.0 day
# [16] = Toxicity in Wistar rat assessed as decrease in body weight at 10 mg/kg, po measured on day 35; type: organism-based; conditions: in vivo, 840 h, time 35 day
# PANC-1 [17] = test: Cytotoxicity against human PANC-1 cells assessed as inhibition of cell growth; type: functional, cell-based
# Alpha-amylase = target: T1, Alpha-amylase (Sus scrofa domesticus, UniProt Q7M328); test: Inhibition of porcine pancreatic Alpha-amylase using starch as substrate preincubated for 10 mins followed by substrate addition and measured after 15 mins by Bio-rad microplate reader analysis; conditions: read-out: IC50
# T1 sequence (Q7M328 whole entry): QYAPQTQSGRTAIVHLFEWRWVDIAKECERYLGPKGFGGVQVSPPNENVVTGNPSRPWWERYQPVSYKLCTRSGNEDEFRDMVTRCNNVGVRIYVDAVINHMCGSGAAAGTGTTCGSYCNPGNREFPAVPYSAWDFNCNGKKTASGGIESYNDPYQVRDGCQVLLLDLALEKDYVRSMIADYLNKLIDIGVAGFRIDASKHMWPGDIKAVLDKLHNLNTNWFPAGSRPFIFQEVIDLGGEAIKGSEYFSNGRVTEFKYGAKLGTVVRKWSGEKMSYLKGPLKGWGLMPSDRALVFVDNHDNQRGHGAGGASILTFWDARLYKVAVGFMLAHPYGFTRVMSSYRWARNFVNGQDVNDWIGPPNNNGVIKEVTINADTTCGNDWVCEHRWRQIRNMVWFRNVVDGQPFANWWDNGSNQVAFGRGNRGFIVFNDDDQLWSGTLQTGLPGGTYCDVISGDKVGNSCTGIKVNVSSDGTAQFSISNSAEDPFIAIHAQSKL
# PANC-1 [18] = test: Induction of ROS production in high glucose-induced human PANC-1 cells assessed as maximum fluorescence intensity at 10 uM incubated for 30 mins DCFDA-staining based flow cytometry analysis (reference value: 15.09); type: functional; conditions: 0.5 h
# [19] = Antioxidant activity assessed as DPPH radical scavenging activity measured for 30 mins by spectrophotometric analysis; type: functional
# Alpha-glucosidase = Alpha-glucosidase (Saccharomyces cerevisiae S288c, UniProt P53341+P38158+P07265); test: Inhibition of yeast Alpha glucosidase 4-nitrophenyl-alpha-D-glucopyranoside incubated for 15 to 20 mins by Bio-rad microplate reader analysis; type: protein assay
# Alpha amylase = target: T2, Alpha amylase (Homo sapiens, UniProt P0DUB6); test: Inhibition of Alpha-amylase (unknown origin); type: protein assay
# T2 sequence (P0DUB6 whole entry): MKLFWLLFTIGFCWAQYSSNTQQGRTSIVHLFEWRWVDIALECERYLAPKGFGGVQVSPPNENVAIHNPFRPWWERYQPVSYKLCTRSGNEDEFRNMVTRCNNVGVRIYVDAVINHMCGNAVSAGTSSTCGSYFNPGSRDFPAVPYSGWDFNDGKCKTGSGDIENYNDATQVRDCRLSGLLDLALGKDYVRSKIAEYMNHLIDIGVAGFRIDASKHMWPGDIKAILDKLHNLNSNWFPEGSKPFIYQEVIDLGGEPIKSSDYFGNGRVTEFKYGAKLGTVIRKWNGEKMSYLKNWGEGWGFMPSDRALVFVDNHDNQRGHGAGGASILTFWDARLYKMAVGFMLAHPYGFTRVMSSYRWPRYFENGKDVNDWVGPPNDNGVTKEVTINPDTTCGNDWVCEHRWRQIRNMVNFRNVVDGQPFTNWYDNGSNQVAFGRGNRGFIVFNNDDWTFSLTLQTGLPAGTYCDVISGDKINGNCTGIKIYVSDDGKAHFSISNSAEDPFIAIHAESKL
# [20] = Inhibition of Alpha glucosidase (unknown origin); design: species or system Homo sapiens
# [21] = Homo sapiens, PANC-1, read-out: IC50
SMILES,IC50 (PANC-1 [17]; [21]),IC50 (Alpha-amylase),Flu intensity (PANC-1 [18]),IC50 ([19]; read-out: IC50),IC50 (Alpha-glucosidase),further results
CCc1ccc(CCOc2ccc(CC3SC(=O)NC3=O)cc2)nc1 (configuration not stated) [PIOGLITAZONE],–,–,–,–,–,Activity (Rattus norvegicus [1]): Active; Activity (Rattus norvegicus [2]): Active; Activity (Rattus norvegicus [3]): Active; Activity [4]: Non-Toxic; Activity (Rattus norvegicus [5]): Active; Activity (Rattus norvegicus [6]): Active; Activity (Rattus norvegicus [7]): Active; Activity (Rattus norvegicus [8]): Active; Activity (Rattus norvegicus [9]): Active; Activity [10]: Non-Toxic; Activity (Rattus norvegicus [11]): Active; Activity [12]: Non-Toxic; Activity [13]: Toxic; Activity (Rattus norvegicus [14]): Active; Activity (Rattus norvegicus [15]): Active; Activity [16]: Toxic
O=C1S/C(=C\c2cccc(Cl)c2Cl)C(=O)N1Cc1cccc([N+](=O)[O-])c1,179 µM,30.4 µM,65017,44.6 µM,54 µM,–
CN(C)c1ccc(/C=C2\SC(=O)N(Cc3cccc([N+](=O)[O-])c3)C2=O)cc1,194 µM,81.1 µM,76992,211 µM,16.9 µM,–
O=C(O)CN1C(=O)S/C(=C\c2cn(-c3ccccc3)nc2-c2ccc([N+](=O)[O-])cc2)C1=O,–,–,–,–,–,IC50 (Alpha amylase): 4.08 µg/mL
C[C@H]1O[C@H](O[C@H]2[C@H](O)[C@@H](O)[C@@H](O[C@H]3[C@H](O)[C@@H](O)C(O)O[C@@H]3CO)O[C@@H]2CO)[C@H](O)[C@@H](O)[C@@H]1N[C@H]1C=C(CO)[C@@H](O)[C@H](O)[C@H]1O (some centres not stated) [ACARBOSE],–,–,1455,–,–,IC50 (PANC-1 [17]; panc-1): Not Active; IC50 [19]: Not Active
COc1ccc(/C=C2\SC(=O)N(Cc3cccc([N+](=O)[O-])c3)C2=O)cc1,104 µM,118 µM,84568,325 µM,57.1 µM,–
O=C1S/C(=C\c2c(Cl)cccc2Cl)C(=O)N1Cc1cccc([N+](=O)[O-])c1,123 µM,25.1 µM,25204,31.1 µM,37.94 µM,–
O=C1S/C(=C\c2c[nH]c3ccccc23)C(=O)N1Cc1ccccc1,191 µM,82.2 µM,22679,30.2 µM,25.76 µM,–
COc1cccc(/C=C2\SC(=O)N(Cc3cccc([N+](=O)[O-])c3)C2=O)c1OC,179 µM,79.1 µM,2271,13.6 µM,153.1 µM,–
C=CCN1C(=O)S/C(=C\c2ccc(Cl)cc2Cl)C1=O,–,–,–,–,–,IC50 (Alpha amylase): 43.85 µg/mL; IC50 [20]: 18.19 µg/mL
O=C1S/C(=C\c2ccc(Cl)cc2)C(=O)N1Cc1cccc([N+](=O)[O-])c1,94.9 µM,44.7 µM,–,32.2 µM,22.61 µM,–
O=C1S/C(=C\c2ccc3c(c2)OCO3)C(=O)N1Cc1cn(-c2ccccc2Cl)nn1,–,–,–,–,–,IC50 [20]: 0.1 µg/mL

# Source: ChEMBL document CHEMBL5543083, “3,5-Disubstituted-thiazolidine-2,4-dione hybrids as antidiabetic agents: Design, synthesis, in-vitro and In vivo evaluation” (Eur J Med Chem, 2024)
